Source: patent US20110177105A1, “Novel Selective Inhibitors of Ubiquitin Specific Protease 7, the Pharmaceutical Compositions Thereof and Their Therapeutic Applications” (priority 2010, published 2011)

Biological target: USP7 (Homo sapiens, UniProt Q93009)
Test: HA-Ub-VS labeling of active DUBs in HCT116 cell lysates
Assay type: biochemical
Design: endogenous in cells; host or cells: HCT116 (inducible USP7 shRNA line) cell lysate
Conditions: for HA-Ub-VS-USP7 protein level: different doses (100 μM to 3 μM)
Excerpt: The C-terminally modified vinyl sulfone derivative of ubiquitin, UbVS, was clearly helpful for a direct visualization of active DUBs in cells. This tool, which binds covalently to the cysteine active site of deubiquitinating enzymes, was successfully applied to discover and characterize novel ubiquitin/ubiquitin-like proteases and to profile active deubiquitinating enzymes in normal, virus-infected, and malignant cells (Borodovsky et al., Chem Biol 2002, 9, 1149-1159, Hemelaar et al., Mol Cell Biol 2004, 24, 84-95, Ovaa et al., Proc Natl Acad Sci USA 2004 101, 2253-2258).
The HA-Ub-VS probe (Hemagglutin tag-Ubiquitin-Vinyl Sulfone) was used in this study to directly visualize the activity of all deubiquitinating enzymes from cell lysates. This tool was used to evaluate the activity/specificity of our small molecule compounds on USP7 relative to all deubiquitinating enzymes active in physiological conditions.
Inducible USP7 shRNA HCT116 cells (previously treated with or without Doxycycline (2 μg/ml) for 4 days) as well as HEK293 cells were harvested and lysed on ice with a non denaturating buffer containing Tris pH 7.4, 50 mM; NaCl, 150 mM; MgCl2, 5 mM; EDTA, 0.5 mM; DTT, 2 mM; ATP, 2 mM; NP40, 0.5% and glycerol, 10%. Samples were incubated at 4° C. for 1 hour and clarified. Proteins were then quantified by Bradford method (Bio-Rad Protein Assay). 25 μg of proteins from native cell lysates were treated with compounds of examples 14 and 5 (from 100 μM to 3 μM) or with NEM (N-Ethylmaleimide, a thiol-reactive compound, 5 mM) for 2 hours at room temperature. The ubiquitin labeling reaction was initiated by the addition of HA-Ub-VS (8 μg/ml) in labeling buffer (Tris pH 7.6, 50 mM; MgCl2, 5 mM; EDTA, 0.5 mM; DTT, 2 mM; ATP, 2 mM; sucrose, 250 mM) and incubated at room temperature for 30 min. Samples were next heated at 100° C. for 10 minutes and briefly sonicated. They were resolved by SDS-polyacrylamide gel electrophoresis (SDS-PAGE), transferred to a nitrocellulose membrane and probed with antibodies against USP7 (Bethyl Lab, A300-034A), HA (BabCO, MMS-101P), and actin (Sigma, A2066). Horseradish peroxidase (HRP)-conjugated anti-mouse (Jackson Laboratories, 115-035-003) or HRP-conjugated anti-rabbit (Cell Signaling, 7074) antibodies were used as secondary antibodies. Signals were detected by enhanced chemiluminescence (ECL; Amersham) according to the reagent manufacturer's instructions.

Sequence of USP7 (Q93009 whole entry): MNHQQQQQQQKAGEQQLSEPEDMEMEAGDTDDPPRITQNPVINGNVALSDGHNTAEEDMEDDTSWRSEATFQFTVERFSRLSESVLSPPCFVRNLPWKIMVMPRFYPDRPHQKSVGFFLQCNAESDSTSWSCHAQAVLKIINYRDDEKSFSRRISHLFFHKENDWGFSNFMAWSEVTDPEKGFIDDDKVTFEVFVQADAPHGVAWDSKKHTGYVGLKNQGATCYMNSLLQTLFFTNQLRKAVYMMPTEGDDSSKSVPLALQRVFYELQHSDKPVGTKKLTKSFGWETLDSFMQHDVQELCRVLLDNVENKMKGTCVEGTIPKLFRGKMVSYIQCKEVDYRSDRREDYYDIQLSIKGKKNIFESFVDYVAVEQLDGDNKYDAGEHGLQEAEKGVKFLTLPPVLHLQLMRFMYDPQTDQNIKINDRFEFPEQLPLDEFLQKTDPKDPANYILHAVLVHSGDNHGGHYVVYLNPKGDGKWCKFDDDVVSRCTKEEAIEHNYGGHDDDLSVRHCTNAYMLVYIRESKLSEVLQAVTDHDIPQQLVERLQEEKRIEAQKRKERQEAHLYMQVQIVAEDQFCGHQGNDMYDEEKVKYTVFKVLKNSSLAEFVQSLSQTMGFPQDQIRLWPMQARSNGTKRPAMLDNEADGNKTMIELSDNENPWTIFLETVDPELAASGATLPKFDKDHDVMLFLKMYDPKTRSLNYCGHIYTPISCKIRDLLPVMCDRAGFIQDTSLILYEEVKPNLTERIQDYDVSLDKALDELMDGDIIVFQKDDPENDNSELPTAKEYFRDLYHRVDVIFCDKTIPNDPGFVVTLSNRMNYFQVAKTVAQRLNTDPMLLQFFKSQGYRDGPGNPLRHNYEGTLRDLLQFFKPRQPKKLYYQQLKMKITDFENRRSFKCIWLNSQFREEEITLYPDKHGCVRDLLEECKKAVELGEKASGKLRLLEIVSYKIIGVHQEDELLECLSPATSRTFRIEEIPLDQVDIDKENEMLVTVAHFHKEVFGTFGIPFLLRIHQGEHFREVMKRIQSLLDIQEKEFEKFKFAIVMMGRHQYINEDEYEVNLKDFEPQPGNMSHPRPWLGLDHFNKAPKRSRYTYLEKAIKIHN

HA-Ub-VS-USP7 protein level | HA-Ub-VS labeled DUB bands after treatment (HA-Ub-VS-USP7 band) (fixed dose 50 μM, anti-HA immunoblot) | SMILES
specific and dose-dependent decrease | – | CCN(CCCNC(=O)c1ccc2c(Cl)c3c(nc2c1)CCCC3)Cc1ccccc1 [Example 5, 9-Chloro-5,6,7,8-tetrahydro-acridine-3-carboxylic acid [3-(benzyl-ethyl-amino)-propyl]-amide]
specific and dose-dependent decrease | only one band was decreased | CN(CCCNC(=O)c1ccc2c(Cl)c3c(nc2c1)CCCC3)Cc1ccccc1 [Example 14, 9-Chloro-5,6,7,8-tetrahydro-acridine-3-carboxylic acid [3-(benzyl-methyl-amino)-propyl]-amide]
